Paper PMC9688475, “Identification and Analysis of Small Molecule Inhibitors of CRISPR-Cas9 in Human Cells” (Cells, 2022)
Values joined by “and” are separate entries in the source; they are usually repeats but may differ in a detail not shown here. Equal entries are not always repeated.

Assays:
LbCas12a = LbCas12a in vitro cleavage assay; assay type: biochemical; conditions: 100 μM
Description: In vitro cleavage experiments were performed using purified recombinant LbCas12a proteins similar to SpCas9 cleavage assays. LbCas12a proteins (50 nM), crRNA (50 nM), and different concentrations of the inhibitor compounds were mixed in NEBuffer 2 (New England Biolabs). After incubation at room temperature for 10 min, ScaI-linearized pUC19 DNA was added to a final concentration of 1.52 nM. The solution was vortex mixed and centrifuged, then incubated for 45 min in a water bath at 37 °C. The reaction was quenched with 0.5 μL proteinase K for 15 min at 56 °C. The samples were mixed with DNA loading buffers and resolved by 1.2% TAE agarose gel electrophoresis. Gel bands were visualized by Chemidoc XRS plus system (Bio-Rad, Hercules, CA, USA).

SpCas9–gRNA complex [1] = target: T1, SpCas9–gRNA complex (Streptococcus pyogenes serotype M1, UniProt Q99ZW2); assay: Competitive fluorescence polarization assay, SpCas9-gRNA; assay type: binding
T1 construct: His6 (N); TEV site (N); made in house; host or cells: E. coli BL21 Star (DE3)
T1 sequence (Q99ZW2 whole entry, one chain of several): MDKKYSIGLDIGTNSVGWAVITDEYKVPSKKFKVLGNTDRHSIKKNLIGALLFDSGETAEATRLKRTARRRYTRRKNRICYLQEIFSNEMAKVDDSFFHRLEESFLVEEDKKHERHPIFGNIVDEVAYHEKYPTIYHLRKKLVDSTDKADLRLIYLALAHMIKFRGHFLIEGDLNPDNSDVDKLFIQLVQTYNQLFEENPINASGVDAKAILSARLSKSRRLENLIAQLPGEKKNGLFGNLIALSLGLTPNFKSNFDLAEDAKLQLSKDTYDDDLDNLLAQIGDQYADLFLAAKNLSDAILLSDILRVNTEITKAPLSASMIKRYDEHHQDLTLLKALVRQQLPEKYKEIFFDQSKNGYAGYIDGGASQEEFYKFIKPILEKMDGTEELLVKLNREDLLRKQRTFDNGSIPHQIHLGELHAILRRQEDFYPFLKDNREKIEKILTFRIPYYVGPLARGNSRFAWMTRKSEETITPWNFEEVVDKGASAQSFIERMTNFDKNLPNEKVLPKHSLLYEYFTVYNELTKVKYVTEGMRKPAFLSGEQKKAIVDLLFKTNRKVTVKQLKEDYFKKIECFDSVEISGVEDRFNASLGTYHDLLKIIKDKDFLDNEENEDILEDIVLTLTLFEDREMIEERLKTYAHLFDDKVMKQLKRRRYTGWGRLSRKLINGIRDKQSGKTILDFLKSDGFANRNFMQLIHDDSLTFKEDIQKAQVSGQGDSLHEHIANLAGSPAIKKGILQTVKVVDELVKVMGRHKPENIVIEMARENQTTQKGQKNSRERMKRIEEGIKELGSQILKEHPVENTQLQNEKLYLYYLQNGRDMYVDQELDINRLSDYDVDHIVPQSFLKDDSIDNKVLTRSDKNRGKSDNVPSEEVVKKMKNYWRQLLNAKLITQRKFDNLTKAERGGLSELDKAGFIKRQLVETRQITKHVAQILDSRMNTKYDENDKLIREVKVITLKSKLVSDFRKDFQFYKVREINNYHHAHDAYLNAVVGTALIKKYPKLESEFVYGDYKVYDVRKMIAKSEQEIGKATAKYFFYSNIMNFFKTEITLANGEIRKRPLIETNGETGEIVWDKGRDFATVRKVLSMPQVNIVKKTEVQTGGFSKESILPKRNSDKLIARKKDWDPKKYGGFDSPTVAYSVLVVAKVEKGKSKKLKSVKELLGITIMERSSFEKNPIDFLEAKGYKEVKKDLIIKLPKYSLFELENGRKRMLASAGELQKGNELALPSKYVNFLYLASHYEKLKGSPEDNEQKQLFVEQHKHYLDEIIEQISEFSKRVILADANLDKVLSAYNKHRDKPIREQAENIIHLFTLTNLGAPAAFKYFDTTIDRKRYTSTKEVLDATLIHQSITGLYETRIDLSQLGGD

dSpCas9–gRNA complex = assay: Competitive fluorescence polarization assay, dSpCas9-gRNA; assay type: binding, Streptococcus pyogenes; conditions: FITC-DNA 25 nM, compounds 50 μM, PAM-DNA 1.25 μM
SpCas9–gRNA complex [2] = target: T1, SpCas9–gRNA complex; assay: Microscale thermophoresis (MST), SpCas9-gRNA RNP; assay type: binding; conditions: SpCas9-EGFP/gRNA RNP (1:1) 200 nM, 25 °C
Description: (§1) The MST method was carried out similar to the previous report. The binding ability of the compounds to SpCas9 in different states was tested by Monolith NT.115 (NanoTemper Technologies, Munich, Germany). The SpCas9-EGFP fusion protein or the SpCas9-EGFP/gRNA RNP complex (protein: gRNA = 1:1) was diluted with a binding buffer (50 mM Tris-HCl, pH 7.4, 150 mM NaCl, 0.05% Tween-20, and 10 mM MgCl2) to make a final concentration of 200 nM. The protein diluent was mixed with the compound diluent in equal volume. The mixture was kept at room temperature for 10 min. Then the sample was loaded into the NanoTemper standard capillaries. All experiments were carried out at 25 °C, 80% MST power, and 50% LED power. The data were analyzed with the NanoTemper MO affinity analysis software (NanoTemper Technologies, Munich, Germany). The raw data were then exported and plotted with Origin 2020b (OriginLab, Northampton, MA, USA).

[3] = tested on: Flag-tagged SpCas9 protein expression; conditions: western blot, GAPDH loading control, concentrations tested
Description: The reporter 293T cells were seeded into 96-well plates at a density of 10,000 cells per well and cultured overnight before the addition of DMSO alone or various compounds (in DMSO solution) at appropriate concentrations (0.125–100 μM) with or without 2 μg/mL doxycycline for an additional 72 h of incubation. The cells were then harvested for analysis with the CytoFLEX flow cytometer (Beckman Coulter, Brea, CA, USA) or analyzed by western blot with antibodies as indicated. […] The inhibiting efficiency in reporter 293T cells was calculated using the following equation: E’ = (P2 − P1)/(P0 − P1) × 100%, where E’ is the inhibiting efficiency in reporter 293T cells, and P0, P1, and P2 are the GFP positive cell ratio of the uninduced group, Dox and DMSO treated control group, and Dox and compound treated group, respectively.

FITC-DNA = conditions: compared with DMSO, no SpCas9
Description: The fluorescence polarization experiment was as previously reported [33]. […] The DNA was labeled at the 3′ end with fluorescein isothiocyanate (FITC). The other one is complementary to the first 58 bases of the previous oligonucleotide. These two oligonucleotides were annealed to generate the target DNA substrate labeled with fluorescent molecules (FITC-DNA). Unlabeled DNA (PAM-DNA) was considered competitive positive controls. Experiments were performed on black 384-well plates (Corning, New York, NY, USA). 50 nM SpCas9-gRNA (1:1) and different concentrations of the compound were added to the reaction buffer (50 mM Tris-HCl, pH 8.0, 0.1 M NaCl, 10 mM MgCl2, and 1 mM DTT). PAM-DNA (1250 nM) was used as a positive control. The mixture was then incubated at room temperature for 30 min, and FITC-DNA was added to the final concentration of 25 nM in each well. Fluorescence polarization signals were measured using a multilabel reader (Victor X5, PerkinElmer, Waltham, MA, USA) within 10 min. These values were plotted using GraphPad Prism 6.0 software (San Diego, CA, USA).

SpCas9 [4] = target: T2, SpCas9 (Streptococcus pyogenes serotype M1, UniProt Q99ZW2); assay: On- and off-target editing at endogenous loci in iCas9 U2OS cells (deep sequencing); assay type: cell-based; design: expressed in transfected cells; conditions: +Dox
T2 sequence (Q99ZW2 whole entry): as the sequence (Q99ZW2 whole entry, one chain of several) above
Description: The iCas9-expressing U2OS cells were first through lentiviral infection. The cells were cultured with 1 μg/mL puromycin until all cells in the negative control group were dead. Monoclonal cells were then isolated and verified. Lentiviruses encoding appropriate gRNAs were used to infect the iCas9 U2OS cells, which were further selected with 10 μg/mL Blasticidin S HCL (Gibco, New York, NY, USA) until all cells in the control group were dead. The iCas9/gRNA cells were then plated in 12-well plates (Thermo Fisher Scientific) at ~40% confluence per well at 24 h before the doxycycline (2 μg/mL) addition. An individual inhibitor compound was also added at this point at the appropriate concentrations. DMSO alone served as the control. Cells cultured without doxycycline served as the SpCas9 cleavage control. After 24 h, cells were collected for genomic DNA extraction using the AxyPrep blood genomic DNA miniprep kit (Axygen, New York, NY, USA). Sequences surrounding the on- and off-target sites were amplified using barcoded primers (Supplementary Table S3) and the KOD PCR kit (Toyobo, Japan) to generate the sequencing libraries. Single-read sequencing of the pooled samples were performed on the 150 Hiseq 2000 (Illumina, San Diego, CA, USA). Each experiment was repeated twice. MATLAB was used to split the sequencing file and CRISPResso2 [38] was used to analyze the frequency of indels.

SpCas9 [5] = target: T2, SpCas9; assay: Microscale thermophoresis (MST), SpCas9; assay type: binding; design: His6 (N); TEV site (N); made in house; host or cells: E. coli BL21 Star (DE3); conditions: SpCas9–EGFP fusion protein 200 nM, 25 °C
Description: as §1

SpCas9 [6] = target: T2, SpCas9; assay: Inhibition of SpCas9 nuclease activity in EGFP/iCas9/gRNA-EGFP reporter 293T cells (flow cytometry); assay type: cell-based; design: expressed in transfected cells; host or cells: H2AX-EGFP HEK293T cells, lentiviral transduction, doxycycline-induced
From the text: The H2AX-EGFP 293T cell line was first generated using the previously reported MMEJ-mediated CRIS-PITCh system. Briefly, we cloned two gRNAs (Supplementary Table S3) that respectively target H2AX gene and the PITCh vector into the px330 plasmid (Addgene, #42230). The PITCh vector contains a pair of 20-bp homologous sequences targeting the upstream and downstream regions of the H2AX gRNA cleavage site, and the SFB-EGFP expression cassette. The three plasmids were co-transfected into 293T cells at an equimolar ratio. GFP-positive cells were sorted by FACS and individually expanded to isolate single clones for genomic DNA extraction and PCR verification of successful knock-in (KI) of the SFB-EGFP cassette into 5′-end of first exon of the H2AX gene. The selected H2AX-EGFP 293T cell clone was subsequently infected with lentiviruses encoding tetracycline-inducible SpCas9 (iCas9). After drug selection, individual clones were again expanded and verified for inducible Cas9 expression. The selected clone was subsequently infected with lentivirus encoding a gRNA that targets EGFP. Puromycin-resistant clones ([…], Thermo Fisher Scientific) were then isolated after >7 days for further analysis.

`CC1(C)CC(=NNc2ccc([N+](=O)[O-])cc2[N+](=O)[O-])CC(C)(C)N1C(=O)COCC(=O)N1C(C)(C)CC(=NNc2ccc([N+](=O)[O-])cc2[N+](=O)[O-])CC1(C)C` [SP2] was tested, and the “inhibition of LbCas12a-mediated cleavage” value (LbCas12a) was “no inhibition”, the “change of FP signals of SpCas9-gRNA and DNA” value (SpCas9–gRNA complex [1]; 50 μM) was < 5% and the “Fluorescence Polarization (mP)” value (SpCas9–gRNA complex [1]; SpCas9+gRNA 50 nM, FITC-DNA 25 nM, compounds 50 μM, PAM-DNA 1.25 μM) was 160.5 mP. The “Fluorescence Polarization (mP)” value (dSpCas9–gRNA complex) was 209.5 mP, the EC50 (SpCas9–gRNA complex [2]) was 5.63 ± 3.65 µM and the “effect on SpCas9 expression” value [3] was “Neither compound appeared to affect SpCas9 expression”. For the same molecule, the “effect on fluorescence polarization value of fluorescence-labeled DNA” value (FITC-DNA) was “did not affect”, the “reduction of SpCas9 off-target editing, EMX1-2” value (SpCas9 [4]; 2.5 μM) was 63.3% and the “Indel (%) EMX1-1 Off-target” value (SpCas9 [4]; 24 h, SP2 2.5 μM, SP24 0.5 μM) was 21.7%. For the same molecule, the “Indel (%) EMX1-1 On-target” value (SpCas9 [4]; 24 h, SP2 2.5 μM, SP24 0.5 μM) was 42.2%, the “Indel (%) EMX1-2 Off-target” value (SpCas9 [4]; 24 h, SP2 2.5 μM, SP24 0.5 μM) was 1.1% and the “Indel (%) EMX1-2 On-target” value (SpCas9 [4]; 24 h, SP2 2.5 μM, SP24 0.5 μM) was ~ 18% and 17.8%. For the same molecule, the “Indel (%) ZSCAN2 Off-target” value (SpCas9 [4]; 24 h, SP2 2.5 μM, SP24 0.5 μM) was 6.7%, the “Indel (%) ZSCAN2 On-target” value (SpCas9 [4]; 24 h, SP2 2.5 μM, SP24 0.5 μM) was 32.2% and the “ratio of on-target vs. off-target indels, EMX1-1” value (SpCas9 [4]; 24 h, SP2 2.5 μM, SP24 0.5 μM) was 1.94 x. For the same molecule, the “ratio of on-target vs. off-target indels, EMX1-2” value (SpCas9 [4]; 24 h, SP2 2.5 μM, SP24 0.5 μM) was 16.18 x, the “ratio of on-target vs. off-target indels, ZSCAN2” value (SpCas9 [4]; 24 h, SP2 2.5 μM, SP24 0.5 μM) was 4.81 x and the “Indel (%) VEGFA-3 Off-target” value (SpCas9 [4]; 24 h, SP2 2.5 μM, SP24 1 μM) was 1.4%. The “Indel (%) VEGFA-3 On-target” value (SpCas9 [4]; 24 h, SP2 2.5 μM, SP24 1 μM) was 35.2%, the “ratio of on-target vs. off-target indels, VEGFA-3” value (SpCas9 [4]; 24 h, SP2 2.5 μM, SP24 1 μM) was 25.14 x and the EC50 (SpCas9 [5]) was 44.2 ± 35.4 µM. For the same molecule, the “SpCas9 inhibition in reporter cells” value (SpCas9 [6]; 10 μM, Dox 2 μg/mL, 72 h) was 50%, the “inhibitory activity in reporter cells (in words)” value (SpCas9 [6]; from 40 to 2 μM) was “changed little” and the EC50 (SpCas9 [6]; titration, Dox 2 μg/mL, 72 h, flow cytometry) was 5.07 µM.
